Experimental data reported in patent US20230167450A1, “BIFUNCTIONAL MOLECULES AND METHODS OF USING THEREOF” (Flagship Pioneering, Inc., priority 2020, published 2023).

Tested on: mRNA encoding Renilla Luciferase protein
Experiment: Renilla luciferase activity (protein expression) in HEK293T cells co-transfected with pRL-TK target plasmid and BTK-fused effector plasmid
Format: cell-based, human
Settings: ASO conjugated at the 5′ end with Ibrutinib-MPEA; effector fused to BTK
From the text: The Ibrutinib-conjugated ASOs described in Example 4a (shown in Table 5 below) were co-transfected into human cells along with the plasmid expressing the target Renilla luciferase described in example 4b, as well as the plasmid expressing BTK-YTHDF1 effector protein described example 4c.
A 96-well cell culture plate with 70% confluent HEK293T cells was transfected with the 50 nanograms of the target luciferase plasmid and 100 nanograms of the plasmid expressing the BTK-YTHDF1 effector, using Lipofectamine 2000 (Thermo Fisher Scientific) according to the manufacturer's instruction. After 24 hours, targeting (test) and non-targeting (control) ASOi were transfected separately into the cells at the final concentration of 100 nM using Lipofectamine RNaiMax (Thermo Fisher Scientific) according to the manufacturer's instruction. For each condition, cells were allowed to recover and are subsequently analyzed 48 hours after the transfection of ASOis.
Pierce Renilla Luciferase Glow Assay Kit (Thermo Fisher Scientific) was used for measuring the luciferase activity corresponding to protein expression in each condition, according to manufacturer's instruction. The luminescence was measured and quantified by a GloMax plate reader and its integrated software (Promega Corp.), according to manufacturer's instruction (FIG. 4). […]

Molecule	Effector(s) increasing translation
ASO3: Rluc RNA-targeting ASO, TTCTGCAGCTTAAGTTCGA, 2′-MOE phosphorothioate; tested conjugated at 5′ end with Ibrutinib-MPEA (*/i2MOErT/*/i2MOErT/*/i2MOErC/*/i2MOErT/*/i2MOErG/*/i2MOErC/*/i2MOErA/*/i2MOErG/*/i2MOErC/*/i2MOErT/*/i2MOErT/*/i2MOErA/*/i2MOErA/*/i2MOErG/*/i2MOErT/*/i2MOErT/*/i2MOErC/*/i2MOErG/*/32MOErA/; as printed in the source, key not given here)	YTHDF1, EIF4E
ASO1: Non-targeting (scramble) control ASO, …, 2′-MOE phosphorothioate; tested conjugated at 5′ end with Ibrutinib-MPEA (nucleic acid, Cy5-labeled IVT RNA) CCUUGAAAUCCAUGACGCAGGGAGAAUUGCGUCAUUUAAAGCCUAGUUAACGCAUUUACUAAACGCAGACGAAAAUGGAAAGAUUAAUUGGGAGUGGUAGGAUGAAACAAUUUGGAGAAGAUAGAAGUUUGAAGUGGAAAACUGGAAGACAGAAGUACGGGAAGGCGAA	YTHDF1, EIF4E
